Assay results as given in ChEMBL document CHEMBL5465560, “Selectivity Literature for EUbOPEN Chemogenomic Library” (2024).
Blank lines part the entries; values can stand above or below the compound they belong to.

Key:
[1] = biological target: T1, Ephrin type-A receptor 6 (Homo sapiens) (UniProt Q9UF33); experiment: Selectivity interaction (KinomeScan (DiscoverX)) EUB0001079a EPHA6; conditions: at 1 µM
T1 sequence (whole entry): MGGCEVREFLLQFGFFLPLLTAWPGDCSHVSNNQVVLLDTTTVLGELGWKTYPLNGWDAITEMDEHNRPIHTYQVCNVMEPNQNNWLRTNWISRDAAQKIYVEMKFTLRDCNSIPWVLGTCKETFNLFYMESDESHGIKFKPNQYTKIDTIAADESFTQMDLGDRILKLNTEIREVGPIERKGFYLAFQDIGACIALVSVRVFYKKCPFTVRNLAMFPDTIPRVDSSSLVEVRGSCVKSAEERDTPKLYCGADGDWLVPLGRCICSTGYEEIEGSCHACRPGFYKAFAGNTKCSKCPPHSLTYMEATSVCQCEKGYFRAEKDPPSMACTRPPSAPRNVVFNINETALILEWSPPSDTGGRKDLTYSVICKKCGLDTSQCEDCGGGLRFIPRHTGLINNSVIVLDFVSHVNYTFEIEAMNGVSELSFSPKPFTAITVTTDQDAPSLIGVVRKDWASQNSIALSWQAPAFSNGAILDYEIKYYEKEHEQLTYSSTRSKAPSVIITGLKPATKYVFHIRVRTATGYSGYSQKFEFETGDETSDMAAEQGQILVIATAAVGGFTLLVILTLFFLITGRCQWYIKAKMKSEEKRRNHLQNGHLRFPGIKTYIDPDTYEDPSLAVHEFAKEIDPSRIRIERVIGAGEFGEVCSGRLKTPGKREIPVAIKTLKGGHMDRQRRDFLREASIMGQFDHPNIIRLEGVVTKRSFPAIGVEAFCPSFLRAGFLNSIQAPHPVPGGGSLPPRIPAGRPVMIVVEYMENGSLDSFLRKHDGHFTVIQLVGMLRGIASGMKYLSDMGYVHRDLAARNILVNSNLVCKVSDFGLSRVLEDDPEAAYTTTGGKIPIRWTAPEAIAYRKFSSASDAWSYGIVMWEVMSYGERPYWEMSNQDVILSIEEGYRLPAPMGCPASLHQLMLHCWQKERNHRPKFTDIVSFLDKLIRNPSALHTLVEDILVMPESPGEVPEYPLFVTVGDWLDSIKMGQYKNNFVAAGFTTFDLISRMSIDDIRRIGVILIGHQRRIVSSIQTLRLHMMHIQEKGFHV

[2] = biological target: T2, Serine/threonine-protein kinase ULK2 (Homo sapiens) (UniProt Q8IYT8); experiment: Selectivity interaction (KinomeScan (DiscoverX)) EUB0000045b ULK2
T2 sequence (whole entry): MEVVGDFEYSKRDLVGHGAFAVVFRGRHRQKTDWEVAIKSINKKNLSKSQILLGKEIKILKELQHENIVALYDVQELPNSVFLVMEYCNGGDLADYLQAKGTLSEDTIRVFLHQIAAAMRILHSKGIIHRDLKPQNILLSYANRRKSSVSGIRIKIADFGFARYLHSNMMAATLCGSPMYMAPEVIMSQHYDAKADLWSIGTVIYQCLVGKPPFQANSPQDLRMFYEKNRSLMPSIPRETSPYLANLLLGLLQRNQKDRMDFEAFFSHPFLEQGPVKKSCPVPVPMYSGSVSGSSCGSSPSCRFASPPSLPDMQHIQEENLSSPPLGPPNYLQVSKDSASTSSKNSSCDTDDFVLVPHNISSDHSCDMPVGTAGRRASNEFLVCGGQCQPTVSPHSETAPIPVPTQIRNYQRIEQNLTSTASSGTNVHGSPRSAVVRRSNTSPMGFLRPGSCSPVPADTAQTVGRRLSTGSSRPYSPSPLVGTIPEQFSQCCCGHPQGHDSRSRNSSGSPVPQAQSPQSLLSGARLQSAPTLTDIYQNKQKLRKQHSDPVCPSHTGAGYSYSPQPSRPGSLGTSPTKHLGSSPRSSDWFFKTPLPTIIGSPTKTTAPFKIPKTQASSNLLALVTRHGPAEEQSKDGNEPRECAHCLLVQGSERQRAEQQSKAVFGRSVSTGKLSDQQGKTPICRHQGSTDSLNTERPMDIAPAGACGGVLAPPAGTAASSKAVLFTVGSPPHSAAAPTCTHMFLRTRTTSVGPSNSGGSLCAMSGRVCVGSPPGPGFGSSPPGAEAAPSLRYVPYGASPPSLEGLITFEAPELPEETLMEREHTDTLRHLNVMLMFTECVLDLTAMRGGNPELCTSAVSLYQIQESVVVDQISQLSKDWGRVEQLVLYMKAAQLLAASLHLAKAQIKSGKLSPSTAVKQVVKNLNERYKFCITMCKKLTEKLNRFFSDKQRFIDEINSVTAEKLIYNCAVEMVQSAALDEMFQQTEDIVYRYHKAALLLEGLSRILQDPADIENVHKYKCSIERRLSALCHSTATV

[3] = biological target: Mitogen-activated protein kinase 9 (Homo sapiens, UniProt P45984); conditions: at 10 µM
Mitogen-activated protein kinase 9, sequence (P45984 whole entry, looked up): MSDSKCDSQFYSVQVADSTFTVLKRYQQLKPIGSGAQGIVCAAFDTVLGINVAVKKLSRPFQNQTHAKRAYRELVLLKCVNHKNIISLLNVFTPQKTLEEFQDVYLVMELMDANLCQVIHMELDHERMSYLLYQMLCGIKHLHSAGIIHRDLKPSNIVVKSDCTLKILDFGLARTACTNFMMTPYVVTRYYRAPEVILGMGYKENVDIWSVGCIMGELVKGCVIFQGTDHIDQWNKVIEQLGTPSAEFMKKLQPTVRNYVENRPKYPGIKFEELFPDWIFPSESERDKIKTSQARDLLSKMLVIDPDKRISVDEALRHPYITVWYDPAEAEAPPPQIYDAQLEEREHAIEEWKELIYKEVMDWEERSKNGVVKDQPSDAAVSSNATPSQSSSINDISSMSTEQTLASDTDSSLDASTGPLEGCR

[4] = biological target: Calcium/calmodulin-dependent protein kinase type 1D (Homo sapiens) (UniProt Q8IU85); experiment: Selectivity interaction (ActivX KiNativ screen (kinase selectivity in THP-1 cell lysates)) EUB0000639a CAMK1D; type: subcellular; conditions: lysate, at 0.01 µM
Calcium/calmodulin-dependent protein kinase type 1D (Homo sapiens), sequence (Q8IU85 whole entry, looked up): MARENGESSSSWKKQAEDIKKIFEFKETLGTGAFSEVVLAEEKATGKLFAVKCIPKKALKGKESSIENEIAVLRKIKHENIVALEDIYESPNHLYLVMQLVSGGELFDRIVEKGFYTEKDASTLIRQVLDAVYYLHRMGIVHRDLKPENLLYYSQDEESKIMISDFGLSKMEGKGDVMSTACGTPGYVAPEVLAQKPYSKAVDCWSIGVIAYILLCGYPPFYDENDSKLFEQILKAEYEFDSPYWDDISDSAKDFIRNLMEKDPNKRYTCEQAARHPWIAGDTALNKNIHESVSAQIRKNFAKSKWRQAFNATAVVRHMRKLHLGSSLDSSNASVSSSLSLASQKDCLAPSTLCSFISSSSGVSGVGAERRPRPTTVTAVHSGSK

[5] = biological target: T3, MAP/microtubule affinity-regulating kinase 4 (Homo sapiens) (UniProt Q96L34); experiment: Selectivity interaction (ActivX KiNativ screen (kinase selectivity in THP-1 cell lysates)) EUB0000639a MARK4; type: subcellular; conditions: lysate, at 0.01 µM
T3 sequence (whole entry): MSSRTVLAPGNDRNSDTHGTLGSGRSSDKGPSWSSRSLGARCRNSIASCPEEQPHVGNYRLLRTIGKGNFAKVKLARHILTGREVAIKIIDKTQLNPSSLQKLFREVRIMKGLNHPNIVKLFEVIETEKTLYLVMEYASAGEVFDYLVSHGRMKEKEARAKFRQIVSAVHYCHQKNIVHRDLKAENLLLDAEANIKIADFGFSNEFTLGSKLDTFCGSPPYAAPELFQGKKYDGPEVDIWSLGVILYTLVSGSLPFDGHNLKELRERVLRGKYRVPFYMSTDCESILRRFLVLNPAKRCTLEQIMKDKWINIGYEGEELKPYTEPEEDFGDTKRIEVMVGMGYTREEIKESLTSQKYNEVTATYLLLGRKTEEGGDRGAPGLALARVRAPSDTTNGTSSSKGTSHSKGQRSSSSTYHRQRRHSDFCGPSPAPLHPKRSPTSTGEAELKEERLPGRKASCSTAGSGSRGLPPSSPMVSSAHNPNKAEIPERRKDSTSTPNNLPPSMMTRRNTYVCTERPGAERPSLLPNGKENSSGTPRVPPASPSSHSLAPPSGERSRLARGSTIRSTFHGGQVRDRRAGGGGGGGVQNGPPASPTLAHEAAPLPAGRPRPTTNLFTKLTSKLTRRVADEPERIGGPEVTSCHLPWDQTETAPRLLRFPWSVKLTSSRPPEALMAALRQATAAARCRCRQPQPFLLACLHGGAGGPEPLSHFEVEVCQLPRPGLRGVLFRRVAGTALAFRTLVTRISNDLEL

SMILES: Nc1cnc(N2CCc3cc(S(=O)(=O)Nc4c(F)cc(Cl)cc4F)cc(N4CCCC4=O)c32)nc1 [TP-020n]
% of control [1]: 98%

SMILES: C=CC(=O)Nc1cc(-n2c(=O)ccc3cnc4ccc(-c5ccc(NS(C)(=O)=O)cc5)cc4c32)ccc1C
% of control ([2]; at 1 µM): 100% | % of control ([2]; at 10 µM): 92%

SMILES: Cc1cc([C@@H](C)Nc2ccccc2C(=O)O)c2nc(N3CCOCC3)cc(=O)n2c1 [AZD-6482]
% of control [3]: 66%

% of inhibition [4]: -1.8% | % of inhibition [5]: 9.6%
SMILES: CC[C@@H]1[C@H](F)C(=O)N[C@@H]1COc1nccc2cc(C(N)=O)c(OC)cc12 [ZIMLOVISERTIB]
